According to US8609610B2, “Inhibitors of the trypsin-like site of the proteasome and methods of use thereof” (Trustees of Dartmouth College, priority 2011, dated 2013):

Legend:
[1] = tested on: trypsin-like sites (β2) of proteasome in MM cells; test: PROTEASOMEGLO assay of proteasome inhibition in MM cells; type: cell-based
[2] = target: T1, chymotrypsin-like site of 26S proteasomes (Oryctolagus cuniculus, UniProt G1T4Q9); test: Inhibition of purified 26S proteasomes, substrate Suc-LLVY-amc; type: biochemical, rabbit; settings: >>30 no inhibition at 30 μM, >30 inhibition between 10 and 50% at 30 μM, read-out: IC50 for sites in 26S proteasomes: Chym-L
T1 sequence (G1T4Q9 1-263): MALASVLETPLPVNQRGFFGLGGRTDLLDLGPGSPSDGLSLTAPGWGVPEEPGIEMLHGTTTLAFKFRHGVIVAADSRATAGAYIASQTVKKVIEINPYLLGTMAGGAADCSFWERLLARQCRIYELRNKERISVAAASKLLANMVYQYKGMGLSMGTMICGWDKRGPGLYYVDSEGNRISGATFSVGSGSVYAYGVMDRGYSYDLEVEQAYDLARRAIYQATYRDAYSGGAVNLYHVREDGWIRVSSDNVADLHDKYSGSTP
Procedure: 26S proteasomes were purified from rabbit muscle using known methods (Screen, et al. (2010) supra). […] NOVEX Bis-Tris gels (12%, Invitrogen) with MOPS running buffer were used for electrophoretic separation of catalytic subunits modified by active-site probes. Inhibition of active sites inside cells was assayed using luminescent PROTEASOMEGLO assay (Promega; Moravec, et al. (2009) Anal. Biochem. 387:294-302) according to known methods (Britton, et al. (2009) supra).

β2 proteasome subunit = target: T2, β2 proteasome subunit (Homo sapiens, UniProt P49720+Q99436); test: Competition assay in HEK-293T cell lysate with MV151; type: biochemical; settings: HEK293 extracts
T2 construct: Whole cell lysates of HEK-293T or EL-4 cells were made by sonication; endogenous in cells; host or cells: HEK-293T
Procedure: Protein concentration was determined by the Bradford assay.
Competitive inhibition of a proteasome active site is reflected by the disappearance of the corresponding band on a gel.

[3] = target: T3, trypsin-like site of 26S proteasomes (Oryctolagus cuniculus, UniProt G1SWK8); test: Inhibition of purified 26S proteasomes, substrate Ac-RLR-amc; type: biochemical, rabbit; settings: purified 26S proteasomes; >>30 no inhibition at 30 μM, >30 inhibition between 10 and 50% at 30 μM; read-out: IC50 for sites in 26S proteasomes: Tr-L
T3 construct: IC50 for sites in 26S proteasomes: Tr-L; other: purified 26S proteasomes; other: 26S proteasomes from rabbit muscles
T3 sequence (G1SWK8 1-271): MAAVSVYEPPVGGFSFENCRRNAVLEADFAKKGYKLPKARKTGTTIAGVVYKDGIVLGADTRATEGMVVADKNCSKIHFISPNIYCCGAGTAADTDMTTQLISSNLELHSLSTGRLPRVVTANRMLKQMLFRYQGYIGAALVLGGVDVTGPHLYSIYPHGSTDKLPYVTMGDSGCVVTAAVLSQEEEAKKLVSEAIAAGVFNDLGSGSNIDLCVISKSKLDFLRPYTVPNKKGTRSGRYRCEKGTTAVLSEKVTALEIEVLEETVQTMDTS

Cathepsin B, H, L, S = test: Cathepsin activity with pan-cathepsin substrate Z-FR-amc; type: cell-based; settings: NCI-H929 cells, 6 hour treatment
Procedure: Cathepsin B, H, L, S activity was measured with pan-cathepsin substrate Z-FR-amc (Kirschke & Wiederanders (1994) Methods Enzymol. 244:500-11) in extracts of cytosol-less cells at pH 6.0 (Screen, et al. (2010) supra). Cathepsin D activity was measured in cytosol-less extracts using SENSOLYTE 520 Cathepsin D Fluorometric Assay Kit (AnaSpec). Combined cathepsin D and E activity was measured using the same kit, in which cathepsin D substrate provided with the kit was replaced with 7-Methoxycoumarin-[…](Dnp)-X′-NH2 (SEQ ID NO:10; where “X′” stand for D-Arg) internally quenched fluorogenic substrate of cathepsin D and E. In this case, pH 3.0 assay buffer used for cell extraction. All activity observed using both procedures was inhibited by more than 98% by specific inhibitor of aspartic proteases pepstatin A.

CC(C)C[C@H](NC(=O)[C@H](Cc1ccc(CN)cc1)NC(=O)[C@H](Cc1ccccc1)N=[N+]=[N-])C(=O)N[C@H](/C=C/S(C)(=O)=O)Cc1ccc(CN)cc1 [Compound 52, N3-Phe-Phe (4-CH2NH2)-Leu-Phe (4-CH2NH2)-VS]
difference in IC50 for trypsin-like activity between NCI-H929 and RPMI-8226 [1]: 2.5 fold | IC50 [2]: 3900 nM | potency in extracts of human cells (β2 proteasome subunit): most potent inhibitor in extracts | IC50 [3]: 6.6 nM | inhibition of cathepsins (Z-FR-amc) (Cathepsin B, H, L, S): slightly more potent inhibitor of cathepsins
